Laboratory results taken from PubChem BioAssay (NCI).
“And” between values parts separate entries of the source, which are not always exact repeats. Equal entries are not always repeated.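 Test compounds were applied to cells in 96-well plates for 48 hours at 5 doses. The concentration for 50% growth inhibition is given as GI50. TGI marks complete inhibition of growth.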

How the values were obtained:
Assay in all cases: inhibition of tumour cell growth, NCI panel, 48 h
K-562 leukemia = tested on: K-562 leukemia
MOLT-4 leukemia = tested on: MOLT-4 leukemia
NCI-H522 lung = tested on: NCI-H522 lung
SF-539 CNS = tested on: SF-539 CNS
SK-MEL-2 melanoma = tested on: SK-MEL-2 melanoma
SK-MEL-28 melanoma = tested on: SK-MEL-28 melanoma
UACC-62 melanoma = tested on: UACC-62 melanoma
BT-549 breast = tested on: BT-549 breast
DU-145 prostate = tested on: DU-145 prostate
MDA-MB-435 = tested on: MDA-MB-435

| SMILES | TGI (K-562 leukemia) | GI50 (MOLT-4 leukemia) | TGI (MOLT-4 leukemia) | GI50 (NCI-H522 lung) | TGI (NCI-H522 lung) | GI50 (SF-539 CNS) | TGI (SF-539 CNS) | GI50 (SK-MEL-2 melanoma) | TGI (SK-MEL-2 melanoma) | GI50 (SK-MEL-28 melanoma) | TGI (SK-MEL-28 melanoma) | GI50 (UACC-62 melanoma) | TGI (UACC-62 melanoma) | GI50 (BT-549 breast) | TGI (BT-549 breast) | GI50 (DU-145 prostate) | TGI (DU-145 prostate) | GI50 (K-562 leukemia) | GI50 (MDA-MB-435) | TGI (MDA-MB-435) |
| --- | --- | --- | --- | --- | --- | --- | --- | --- | --- | --- | --- | --- | --- | --- | --- | --- | --- | --- | --- | --- |
| CC(=O)OCC1OC(OC2CC3C(C)(C)C(O)CC[C@]3(C)C3CCC45CC4(CC[C@H]5C(C)CC(O)C4OC4(C)C)[C@]23C)C(O)C(O)C1O (stereo not given in full) | 4.12 µM and 16.2 µM | 3.01 µM | 2.34 µM and 7.26 µM | 5.75 µM | 11.8 µM and 19 µM | 6.32 µM | 15.3 µM and 18.7 µM | 2.46 µM | 12.1 µM and 8.67 µM | 8.37 µM | 14.3 µM and 21.3 µM | 4.99 µM | 14.2 µM and 17.3 µM | – | – | – | – | – | – | – |
| COc1ccccc1/C=N\N=C(N/N=C/c1ccccc1OC)N/N=C/c1ccccc1OC | 36.4 µM | 3.04 µM | 12.1 µM | 4.55 µM | > 100 µM | 4.27 µM | > 100 µM | 5.51 µM | > 100 µM | 6.41 µM | > 100 µM | 2.55 µM | 7.71 µM | 2.88 µM | 9.83 µM | 3.92 µM | > 100 µM | 3.09 µM | 2.36 µM | 6.49 µM |
| CO[C@@H]1/C=C(C)/C=C/[C@@H](C)/C=C(\C)C(=O)OC(/C(C)=C/C=C(\C)CNC(=O)[C@H](CO)NC=O)[C@@H](C)/C=C/C=C/[C@H](OC)CC/C=C(C)/C=C/C1 (stereo not given in full) | 0.238 µM | < 0.005 µM | > 42.2 µM | < 0.005 µM | 18.7 µM | < 0.005 µM | 0.199 µM | < 0.005 µM | – | 0.00843 µM | 11.4 µM | < 0.005 µM | < 0.005 µM | < 0.005 µM | 12.1 µM | 0.169 µM | 14.5 µM | < 0.005 µM | < 0.005 µM | < 0.005 µM |
| O=C(c1ccco1)c1c(C(F)(F)F)n([O-])c2ccccc2[n+]1=O | 3.43 µM | 0.102 µM | 0.564 µM | 0.468 µM | 1.98 µM | 0.28 µM | 0.712 µM | 1.48 µM | 6.19 µM | 15.9 µM | 50 µM | 0.536 µM | 2.61 µM | 1.31 µM | 3.81 µM | 0.367 µM | 0.969 µM | 0.207 µM | 1.85 µM | 17.5 µM |
| O=Nc1ccc2ccccc2c1O | – | – | – | 1.78 µM | 4.17 µM | 20.8 µM | 37.2 µM | 2.34 µM | 5.29 µM | 9.08 µM | 22.2 µM | 2.23 µM | 5.89 µM | 17.7 µM | 31.6 µM | 10.4 µM | 22.7 µM | – | 2.31 µM | 4.53 µM |
| COc1ccc2c(c1)C(c1ccccc1Cl)=Nc1c(n[nH]c1C)N2 | > 25 µM | > 25 µM | > 25 µM | > 20 µM | > 25 µM | 4.95 µM | > 18.8 µM | > 11.2 µM | > 23.4 µM | > 25 µM | > 25 µM | 25 µM | > 25 µM | > 21.2 µM | > 25 µM | > 25 µM | > 25 µM | > 25 µM | > 25 µM | > 25 µM |
| CCCCOC(=O)NC(=O)c1cn(CCSCCOC(=O)NCCCCCCNC(=O)OCCSCCn2cc(C(=O)NC(=O)OCCCC)c(=O)[nH]c2=O)c(=O)[nH]c1=O | > 100 µM | – | – | – | > 100 µM | – | > 100 µM | – | > 100 µM | – | > 100 µM | – | > 100 µM | – | – | – | – | – | – | – |
| NC(=O)C(c1ccccc1)N1CCOCC1 (stereo not given) | > 100 µM | – | > 100 µM | – | > 100 µM | – | > 100 µM | – | > 100 µM | – | > 100 µM | – | > 100 µM | – | – | – | – | – | – | – |
| COC(=O)[C@]12CC[C@@H](C)[C@H](C)[C@@H]1C1=CC[C@@H]3[C@@]4(C)C=C(O)C(=O)[C@@]5(C)COC(=C54)C[C@@]3(C)[C@]1(C)CC2 | 13.8 µM | 2.21 µM | 6.52 µM | 2.57 µM | 9.17 µM | 18.4 µM | 44.3 µM | 13.1 µM | 29.6 µM | 16.4 µM | 38.9 µM | – | – | 7.96 µM | 25.8 µM | 11.7 µM | 28.2 µM | 3.12 µM | 6.12 µM | 21.5 µM |
| Cc1cc(Nc2ncnc3ccc(NC4=NC(C)(C)CO4)cc23)ccc1Oc1ccn2ncnc2c1 | > 100 µM | 14.6 µM and > 10 µM | 42.2 µM and > 10 µM | 2.44 µM and > 10 µM | 21.1 µM and > 10 µM | 15.6 µM and > 10 µM | 31.2 µM and > 10 µM | 20.1 µM and > 10 µM | 46.4 µM and > 10 µM | 13.2 µM and > 10 µM | 29.3 µM and > 10 µM | 12.5 µM and > 10 µM | 30.3 µM and > 10 µM | 14.1 µM and > 10 µM | 39.5 µM and > 10 µM | 15.9 µM and > 10 µM | > 100 µM | 17.1 µM and > 10 µM | 16.4 µM and > 10 µM | 36.9 µM and > 10 µM |
| c1ccc2c(c1)[nH]c1cnc3c4cccnc4[nH]c3c12 | 46.4 µM | – | 49.3 µM | – | – | – | 44.7 µM | – | – | – | 38.4 µM | – | 31.1 µM | – | – | – | – | – | – | – |
| CC(=O)OC1CC2(O)C3CCC4CC(O)CCC4(C)C3CCC2(C)C1C1=CC(=O)OC1 (stereo not given) | 1.87 µM | – | 0.0593 µM | – | 0.185 µM | – | 0.113 µM | – | 0.505 µM | – | 0.654 µM | – | 0.475 µM | – | 0.0895 µM | – | 0.11 µM | – | – | 0.357 µM |
| C/C(=N\N=C(/[Se])N1CC2CCC(CC2)C1)c1ccccn1 | 0.575 µM | – | 1.16 µM | – | 0.615 µM | – | 1.2 µM | – | 0.716 µM | – | 1.03 µM | – | 0.711 µM | – | 1.63 µM | – | 1.68 µM | – | – | 0.619 µM |
| O=C(C(=O)N1CC2C=CC1CC2)c1c[nH]c2ccccc12 (stereo not given) | > 100 µM | – | > 100 µM | – | > 100 µM | – | > 100 µM | – | > 100 µM | – | – | – | > 100 µM | – | – | – | – | – | – | – |
| O=C1c2c(n(Cc3ccccc3)c(=O)n2Cc2ccccc2)C(=O)N1Cc1ccccc1 | > 100 µM | – | > 100 µM | – | > 100 µM | – | > 100 µM | – | > 100 µM | – | > 100 µM | – | > 100 µM | – | – | – | – | – | – | – |
| Cc1cc(=O)oc2cc(OCc3c(F)cccc3Cl)ccc12 | – | – | – | – | > 100 µM | – | 48.7 µM | – | > 100 µM | – | > 100 µM | – | 35 µM | – | > 100 µM | – | > 100 µM | – | – | 3.5 µM |
